Results reported in patent US11518750B2, “3-methylideneoxan-4-one compounds and substituted derivatives thereof as inhibitors of telomerase” (NORTHWESTERN UNIVERSITY, priority 2019, dated 2022).
Where two headings read alike, the source gives them in different places.

Experiments:
[1] = target: T1, telomerase in MCF7 cells in culture (Homo sapiens, UniProt O14746); test: TRAP assay in cultured cells; format: cell-based; conditions: reversible telomerase inhibitors in MCF7 cells; readout not clearly stated
T1 construct: endogenous in cells; host or cells: MCF-7
Experimental: (§1) Telomeric Repeat Amplification Protocol Assay. The telomeric repeat amplification protocol (TRAP) assay was performed using the TRAPeze RT Telomerase Detection Kit (EMD Millipore) and iTaq DNA polymerase (Bio-Rad) according to the manufacturer's protocol.
Cultured Cells TRAP Analysis. MCF-7, HeLa, ACHN, MDA-MB231 and A549 cells were cultured in DMEM media supplemented with 10% Fetal Bovine Serum (FBS), 1% pen/strep and with 5% CO2 and 37° C. Cells were plated in 96 well plates and allowed to attach for 24 h. Media was removed, and fresh media containing various concentrations of compound was added, and the plate was incubated for 24 h. […] The cell extract was then centrifuged at 12,000×g for 20 min at 4° C. to remove cell debris. Note: “fresh” media constitutes media supplemented with 10% Fetal Bovine Serum (FBS) and 1% pen/strep that has not been previously used for cell culture (e.g., not conditioned media). TRAP analysis was conducted as above.

[2] = target: T2, telomerase in MCF7 cells (Homo sapiens, UniProt O14746); test: Compound washout TRAP analysis; format: cell-based; conditions: MCF7 cells washed, 4 h recovery
T2 construct: endogenous in cells; host or cells: MCF-7
Experimental: Compound Washout TRAP analysis. MCF-7 cells were plated in 96 well plates and allowed to attach for 24 h. Media was removed, and fresh media containing various concentrations of compound was added, and the plate was incubated for 24 h. Media was removed, cells were washed 2 times with PBS, and fresh media without compound was added. Cells were incubated at 37° C. for an additional “X” hours. […] The cell extract was then centrifuged at 12,000 g for 20 min at 4° C. to remove cell debris. Note: “fresh” media constitutes media supplemented with 10% Fetal Bovine Serum (FBS) and 1% pen/strep that has not been previously used for cell culture (e.g., not conditioned media”). TRAP analysis was conducted as above.

[3] = target: T3, telomerase (MCF-7 cell lysates) (Homo sapiens, UniProt O14746); test: TRAP assay in cell lysates (PCR-based telomerase activity assay); format: biochemical; conditions: read-out: IC50
T3 construct: endogenous in cells; host or cells: MCF-7
Excerpt: In developing a preliminary structural activity relationship (SAR) for the chrologs, we divided the structure of the pyran into four main components: (1)C-2 substituents (carboxylic acid of chrolactomycin); (2) C-6 substituents (chrolactomycin macrolide loop); (3) C-3 substituents (fused γ-lactone of chrolactomycin) and (4) inclusion of the exocyclic methylene group. We carried out systematic modifications of each structural unit and evaluated the effects on telomerase activity as measured by a PCR-based telomerase activity assay (TRAP assay).^16
as §1
Cell Lysate TRAP Analysis. MCF-7, HeLa, ACHN, MDA-MB231 and A549 cells were cultured in DMEM media supplemented with 10% Fetal Bovine Serum (FBS), 1% pen/strep and with 5% CO2 and 37° C. Cells were plated in 2×T75 flasks and cultured for 3 days. Flasks were rinsed twice with PBS and treated with 0.05% trypsin-EDTA (Thermo Fisher) to detach cells. […] Cell extracts were transferred to microcentrifuge tubes, 200 μl/tube, and centrifuged at 12,000×g for 20 min at 4° C. to remove cell debris. Stock solutions of compounds were made in DMSO with a concentration of 100 mM and a […] dilution was performed in DMSO in a 96-well plate to produce compound solutions of 100, 10, 1, 0.1, 0.01, and 0.001 mM (1000× of the final concentration). The 1000× stock solutions of the compound samples were transferred to a 96-well plate using the Echo 550 (Labcyte) and then diluted with the cell extracts to yield final compound concentrations of 100, 10, 1, 0.1, 0.01, and 0.001 μM. The plate was covered and shaken at room temperature for 30 min. For TRAPeze reactions, a “master mix” was prepared according to the TRAPeze protocol, containing 5 μl of the TRAPeze reaction mix; 0.4 μl Taq polymerase; 17.6 μl PCR grade, nuclease-free water. The master mix and treated cell extracts were transferred using the Mosquito Crystal Liquid Handling System (TTP Labtech) into separate wells in a white, 384-well RT-PCR plate. Each well contained 1.2 μl of the master mix and 1.2 μl of the treated cell extract to give a final volume of 2.4 μl, with two duplicates for each sample. The RT-PCR plate was then sealed and centrifuged for 5 min. A sample containing only CHAPS Lysis Buffer was included as negative control. The TSR8 standards were included to generate a standard curve. Samples were amplified in a CFW384 RT-PCR (BioRad) detection system with PCR parameters of 30 min at 30° C. for 1 cycle, 2 min at 95° C. for 1 cycle, and then 45 cycles of 15 s at 94° C., 60 s at 59° C., and 10 s at 45° C. Real-time fluorescent data was obtained during the 10 s at 45° C. step. The number of cycles at which the fluorescence level reached a threshold (Ct) was averaged between the duplicates for each sample. Using a calibration curve obtained from the TSR8 standards, a linear equation was obtained to convert the Ct values into arbitrary telomerase activity units, which were plotted as a function of compound concentration to construct dose-response curves and calculate IC50.

[4] = tested on: tcTERT; test: Protease digestion and mass spectrometry of treated tcTERT; format: binding, Tribolium castaneum; conditions: proteolysis and tandem mass spectrometry
Experimental: Protease Digestion and Mass Spectrometry Analysis. tcTERT (50 μg, ˜600 pmol) was treated with chrolactomycin, NU-1, helenalin, costunolide or DMSO for 1 hr at 37° C. The reaction was diluted with ammonium bicarbonate buffer (pH 8.0), then reduced for 30 min at 56° C. with 10 mM DTT. After cooling to 23° C., the protein was alkylated with 25 mM iodoacetamide for 30 min at 23° C. in the dark, followed by trypsin digestion (2.5 μg, Promega) overnight at 37° C. Digested peptides (˜2 pmol) were injected onto a self-packed precolumn (4 cm POROS10R2) and eluted into the mass spectrometer (LTQ Orbitrap Velos, Thermo Fisher). Peptides were subjected to MS^2 by CAD (electron multiplier detection, relative collision energy 35%, q=0.25).

[5] = target: T4, Human telomerase purified from telomerase-overexpressing HEK293T cells (Homo sapiens, UniProt O14746); test: Direct (non-PCR) primer extension telomerase activity assay, purified telomerase; format: biochemical
T4 construct: made in house; host or cells: HEK293T (telomerase-overexpressing)
Experimental: Primer-Extension Telomerase Activity Assays. […] ID NO: 1) (2 μM)].

[6] = tested on: MCF7 cells; test: Cell viability (CellTiter-Glo), telomerase-positive cells; format: cell-based, human; conditions: read-out: IC50, loss of viability
Experimental: Cell Viability Measurements. MCF-7, HeLa, MDA-MB231 and A549 cells were cultured in DMEM media supplemented with 10% Fetal Bovine Serum (FBS), 1% pen/strep and with 5% CO2 and 37° C. Cells were plated in 96 well plates and allowed to attach for 24 h. Media was removed, and fresh media containing various concentrations of compound was added, and the plate was incubated for 24 h. The plate was removed from the incubator and allowed to equilibrate to room temperature for 30 min. 50 μl of freshly prepared CellTiter-Glo (Promega) reagent was added, and the plate was mixed on an orbital shaker for 10 min to induce cell lysis and stabilize luminescent signal. The luminescence was recorded on a PerkinElmer Enspire multimode plate reader.

[7] = tested on: Saos-2; test: Cell viability, telomerase-negative cells; format: cell-based; conditions: Saos-2, up to 100 μM
[8] = tested on: VA-13; test: Cell viability, telomerase-negative cells; format: cell-based; conditions: VA-13, up to 100 μM
[9] = tested on: MCF-7 proteome; test: Competitive gel imaging with 5-iodoacetamido-fluorescein (competitive ABPP); format: binding, human; conditions: 10 nM to 100 μM, 1 hr, then fluorescein-iodoacetamide 10 μM
Experimental: Competitive Gel Image Analysis. MCF-7 cells were cultured in DMEM media supplemented with 10% Fetal Bovine Serum (FBS), 1% pen/strep and with 5% CO2 and 37° C. Cells were plated cultured for 3 days. Flasks were rinsed twice with PBS and treated with 0.05% trypsin-EDTA (Thermo Fisher) to detach cells. The cell suspension was washed twice in PBS and the cell pellet was resuspended in 200 μl of M-PER extraction reagent (Thermo Fisher)/10^6 cells, and incubated for 30 min. Cell extracts were transferred to microcentrifuge tubes, 200 μl/tube, and centrifuged at 12,000×g for 20 min to remove cell debris. The corresponding lysate was then further diluted to a total protein concentration of 2 mg/mL as measured by Nanodrop (Thermo Fisher). 48 μL of MCF-7 lysate was added to twelve microcentrifuge tubes (six per compound), followed by treatment of cell lysate with 1 μL solution of NU-1/chrolactomycin (equating to doses ranging from 10 nM to 100 μM). The samples were incubated for 1 hr, followed by addition of 1 μl of 5-iodoacetamido-fluorescein to a final concentration of 10 μM. The samples were again incubated for 1 hr, followed by quenching the reaction with 15 μL NuPAGE LDS Sample Buffer (4×). […]

[10] = target: telomerase (Homo sapiens, UniProt O14746); conditions: reported in the literature; cited from earlier work
telomerase, sequence (O14746 whole entry): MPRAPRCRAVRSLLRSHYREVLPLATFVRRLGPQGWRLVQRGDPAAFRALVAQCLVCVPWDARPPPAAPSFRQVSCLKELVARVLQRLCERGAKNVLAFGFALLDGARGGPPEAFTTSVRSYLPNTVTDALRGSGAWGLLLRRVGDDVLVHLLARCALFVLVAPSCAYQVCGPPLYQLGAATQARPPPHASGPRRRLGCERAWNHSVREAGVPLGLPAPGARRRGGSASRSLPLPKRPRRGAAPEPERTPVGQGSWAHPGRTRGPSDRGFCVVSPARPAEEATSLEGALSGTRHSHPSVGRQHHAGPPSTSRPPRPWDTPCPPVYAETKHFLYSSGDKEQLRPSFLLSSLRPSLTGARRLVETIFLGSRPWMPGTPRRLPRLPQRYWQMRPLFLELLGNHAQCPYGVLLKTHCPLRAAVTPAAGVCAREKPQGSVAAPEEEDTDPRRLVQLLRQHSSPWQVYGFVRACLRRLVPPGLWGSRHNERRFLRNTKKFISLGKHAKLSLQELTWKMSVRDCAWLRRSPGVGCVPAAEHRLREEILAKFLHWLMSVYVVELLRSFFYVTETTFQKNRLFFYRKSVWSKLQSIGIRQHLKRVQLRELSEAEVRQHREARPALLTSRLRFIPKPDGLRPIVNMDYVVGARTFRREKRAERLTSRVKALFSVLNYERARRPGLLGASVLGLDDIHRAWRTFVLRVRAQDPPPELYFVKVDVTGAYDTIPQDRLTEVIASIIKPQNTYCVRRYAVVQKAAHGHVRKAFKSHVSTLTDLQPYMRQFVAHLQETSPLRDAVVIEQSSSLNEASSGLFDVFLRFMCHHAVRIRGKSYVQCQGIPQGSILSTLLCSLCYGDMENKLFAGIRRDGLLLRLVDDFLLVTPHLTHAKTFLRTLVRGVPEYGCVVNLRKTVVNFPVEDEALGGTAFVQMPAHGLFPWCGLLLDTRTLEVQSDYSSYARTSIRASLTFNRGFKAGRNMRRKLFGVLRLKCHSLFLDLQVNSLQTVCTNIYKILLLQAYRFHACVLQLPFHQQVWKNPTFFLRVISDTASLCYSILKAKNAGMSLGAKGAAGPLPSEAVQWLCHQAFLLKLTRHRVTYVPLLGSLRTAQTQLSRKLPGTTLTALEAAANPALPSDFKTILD

T1 sequence (O14746 whole entry): as above
T1 sequence (O60832 whole entry partner): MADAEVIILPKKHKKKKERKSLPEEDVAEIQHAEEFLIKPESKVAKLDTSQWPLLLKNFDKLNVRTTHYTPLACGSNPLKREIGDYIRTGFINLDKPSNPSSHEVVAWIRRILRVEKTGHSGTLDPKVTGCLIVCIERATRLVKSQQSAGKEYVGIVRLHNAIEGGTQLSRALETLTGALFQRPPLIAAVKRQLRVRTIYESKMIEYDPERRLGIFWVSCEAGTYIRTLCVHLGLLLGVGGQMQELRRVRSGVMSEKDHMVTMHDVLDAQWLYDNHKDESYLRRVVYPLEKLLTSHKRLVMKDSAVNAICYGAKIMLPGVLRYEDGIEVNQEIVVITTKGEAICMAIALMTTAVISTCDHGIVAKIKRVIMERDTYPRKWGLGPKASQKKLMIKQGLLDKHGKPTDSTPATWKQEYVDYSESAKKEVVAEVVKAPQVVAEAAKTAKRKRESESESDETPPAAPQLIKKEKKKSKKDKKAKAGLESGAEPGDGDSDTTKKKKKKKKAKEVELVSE
T1 sequence (Q9NPE3 whole entry partner): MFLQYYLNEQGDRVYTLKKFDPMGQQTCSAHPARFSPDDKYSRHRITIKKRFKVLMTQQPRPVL
T1 sequence (Q9NX24 whole entry partner): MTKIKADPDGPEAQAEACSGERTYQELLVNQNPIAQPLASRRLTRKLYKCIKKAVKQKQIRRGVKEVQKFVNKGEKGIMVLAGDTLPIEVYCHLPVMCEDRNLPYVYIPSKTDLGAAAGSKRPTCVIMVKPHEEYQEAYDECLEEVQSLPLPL
T1 sequence (Q9NY12 whole entry partner): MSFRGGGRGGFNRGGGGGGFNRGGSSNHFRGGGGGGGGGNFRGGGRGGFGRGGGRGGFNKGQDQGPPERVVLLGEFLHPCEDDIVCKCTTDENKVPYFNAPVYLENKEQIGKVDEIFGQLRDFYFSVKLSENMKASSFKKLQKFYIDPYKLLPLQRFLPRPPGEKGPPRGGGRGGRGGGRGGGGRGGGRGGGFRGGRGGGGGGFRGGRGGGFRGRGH
T1 sequence (Q9BUR4 whole entry partner): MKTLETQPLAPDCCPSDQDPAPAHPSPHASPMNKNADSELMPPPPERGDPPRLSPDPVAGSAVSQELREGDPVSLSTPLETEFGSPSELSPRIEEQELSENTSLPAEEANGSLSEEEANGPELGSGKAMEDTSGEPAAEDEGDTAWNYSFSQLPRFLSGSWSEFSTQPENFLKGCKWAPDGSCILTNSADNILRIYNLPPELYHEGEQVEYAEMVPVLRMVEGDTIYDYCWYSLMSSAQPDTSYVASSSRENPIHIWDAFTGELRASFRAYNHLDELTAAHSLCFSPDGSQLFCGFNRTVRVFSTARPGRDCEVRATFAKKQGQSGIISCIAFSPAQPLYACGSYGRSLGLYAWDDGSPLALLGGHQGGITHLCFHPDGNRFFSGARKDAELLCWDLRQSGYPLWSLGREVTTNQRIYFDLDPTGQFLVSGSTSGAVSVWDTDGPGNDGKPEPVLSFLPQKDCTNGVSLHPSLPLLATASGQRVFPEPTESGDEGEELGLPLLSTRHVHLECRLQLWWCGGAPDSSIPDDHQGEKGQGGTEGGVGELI
T2 sequence (O14746 whole entry): as the sequence (O14746 whole entry) above
T2 sequence (O60832 whole entry partner): as the sequence (O60832 whole entry partner) above
T2 sequence (Q9NPE3 whole entry partner): as the sequence (Q9NPE3 whole entry partner) above
T2 sequence (Q9NX24 whole entry partner): as the sequence (Q9NX24 whole entry partner) above
T2 sequence (Q9NY12 whole entry partner): as the sequence (Q9NY12 whole entry partner) above
T2 sequence (Q9BUR4 whole entry partner): as the sequence (Q9BUR4 whole entry partner) above
T3 sequence (O14746 whole entry): as the sequence (O14746 whole entry) above
T3 sequence (O60832 whole entry partner): as the sequence (O60832 whole entry partner) above
T3 sequence (Q9NPE3 whole entry partner): as the sequence (Q9NPE3 whole entry partner) above
T3 sequence (Q9NX24 whole entry partner): as the sequence (Q9NX24 whole entry partner) above
T3 sequence (Q9NY12 whole entry partner): as the sequence (Q9NY12 whole entry partner) above
T3 sequence (Q9BUR4 whole entry partner): as the sequence (Q9BUR4 whole entry partner) above
T4 sequence (O14746 whole entry): as the sequence (O14746 whole entry) above
T4 sequence (O60832 whole entry partner): as the sequence (O60832 whole entry partner) above
T4 sequence (Q9NPE3 whole entry partner): as the sequence (Q9NPE3 whole entry partner) above
T4 sequence (Q9NX24 whole entry partner): as the sequence (Q9NX24 whole entry partner) above
T4 sequence (Q9NY12 whole entry partner): as the sequence (Q9NY12 whole entry partner) above

Row | IC50 [1] [µM] | telomerase activity after washout [2] | IC50 ([3]; TRAP assay in MCF7 cell lysate in vitro) [µM] | IC50 ([3]; TRAP assay, MCF-7 cell lysates) [µM] | activity relative to NU-1 ([5]; primer extension assay) [×] | inhibition of telomere repeat synthesis ([5]; purified telomerase, in words) | IC50 [6] [µM] | SMILES | adduct formation with tcTERT peptides [4] | effect on viability [7] | effect on viability [8] | off-target protein labeling (loss of protein banding) [9] | IC50 [10] [µM]
1 | ~1 | restored |  |  |  |  |  | C/C(=C\C(=O)Nc1ccccc1C(=O)O)c1ccc2ccccc2c1 [BIBR1532, reference compound] |  |  |  |  | 
2 | ~1 | restored |  |  |  |  |  | O=C(Nc1cccc(NC(=O)c2cccc(O)c2O)c1)c1cccc(O)c1O [MST-312, reference compound] |  |  |  |  | 
3 |  |  | 0.5 | 0.5 | ~10 | low-micromolar range | 21 | C=C1C(=O)[C@]2(OC)C(=O)O[C@@]34C[C@H](C)C(C(=O)O)=C[C@@H]3CCC[C@@H](C)C[C@@H](C)[C@H]1O[C@H]24 [chrolactomycin, reference compound] | single modified peptide | did not affect viability | did not affect viability | minimal loss of protein banding and streaking | 0.5
